Experimental data from ChEMBL document CHEMBL1671764, “In vitro and in vivo activities of LCB01-0371, a new oxazolidinone” (2010).
≈ marks a conversion by molar mass, not a printed value.

What was measured:
Assay type in all cases: functional
Streptococcus pneumoniae = assay: Antibacterial activity against 10^4 to 10^5 CFU Streptococcus pneumoniae after 18 hrs by CLSI 2-fold agar dilution method
Enterococcus faecium = assay: Antibacterial activity against 10^4 to 10^5 CFU Enterococcus faecium after 18 hrs by CLSI 2-fold agar dilution method
Enterococcus faecalis = assay: Antibacterial activity against 10^4 to 10^5 CFU Enterococcus faecalis after 18 hrs by CLSI 2-fold agar dilution method
Enterococcus = assay: Antibacterial activity against 10^4 to 10^5 CFU vancomycin-resistant Enterococcus after 18 hrs by CLSI 2-fold agar dilution method
Staphylococcus aureus [1] = assay: Antibacterial activity against 10^4 to 10^5 CFU methicillin-resistant Staphylococcus aureus after 18 hrs by CLSI 2-fold agar dilution method
Staphylococcus [2] = assay: Antibacterial activity against 10^4 to 10^5 CFU methicillin-susceptible coagulase-negative Staphylococcus after 18 hrs by CLSI 2-fold agar dilution method
Streptococcus pyogenes = assay: Antibacterial activity against 10^4 to 10^5 CFU Streptococcus pyogenes after 18 hrs by CLSI 2-fold agar dilution method
Moraxella catarrhalis = assay: Antibacterial activity against 10^4 to 10^5 CFU Moraxella catarrhalis after 18 hrs by CLSI 2-fold agar dilution method
Haemophilus influenzae [3] = assay: Antibacterial activity against 10^4 to 10^5 CFU Haemophilus influenzae after 18 hrs by CLSI 2-fold agar dilution method
Staphylococcus aureus [4] = assay: Antibacterial activity against 10^4 to 10^5 CFU methicillin-susceptible Staphylococcus aureus after 18 hrs by CLSI 2-fold agar dilution method
Staphylococcus [5] = assay: Antibacterial activity against 10^4 to 10^5 CFU methicillin-resistant coagulase-negative Staphylococcus after 18 hrs by CLSI 2-fold agar dilution method
Haemophilus influenzae [6] = assay: Antibacterial activity against 7.5 x 10^8 CFU Haemophilus influenzae hd2 infected in ICR mouse systemic infection model assessed as mouse protection administered orally twice after 1 and 4 hrs post infection measured after 48 hrs

Question: What does the source list for `Cc1onc(-c2ccccc2)c1C(=O)N[C@@H]1C(=O)N2[C@@H]1SC(C)(C)[C@@H]2C(=O)O` [OXACILLIN]?
Answer: MIC50 (Streptococcus pneumoniae): 8 µg/mL (≈ 19.9 µM); MIC90 (Streptococcus pneumoniae): 16 µg/mL (≈ 39.9 µM); MIC50 (Enterococcus faecium): > 64 µg/mL; MIC90 (Enterococcus faecium): > 64 µg/mL; MIC50 (Enterococcus faecalis): 16 µg/mL (≈ 39.9 µM); MIC90 (Enterococcus faecalis): > 64 µg/mL; MIC50 (Enterococcus): > 64 µg/mL; MIC90 (Enterococcus): > 64 µg/mL; MIC50 (Staphylococcus aureus [1]): > 64 µg/mL; MIC90 (Staphylococcus aureus [1]): > 64 µg/mL; MIC50 (Staphylococcus [2]): 0.125 µg/mL (≈ 0.311 µM); MIC90 (Staphylococcus [2]): 1 µg/mL (≈ 2.49 µM); MIC50 (Streptococcus pyogenes): 0.5 µg/mL (≈ 1.25 µM); MIC90 (Streptococcus pyogenes): 8 µg/mL (≈ 19.9 µM); MIC50 (Moraxella catarrhalis): 0.06 µg/mL (≈ 0.149 µM); MIC90 (Moraxella catarrhalis): 0.06 µg/mL (≈ 0.149 µM); MIC50 (Haemophilus influenzae [3]): < 0.008 µg/mL; MIC90 (Haemophilus influenzae [3]): 0.015 µg/mL (≈ 0.0374 µM); MIC50 (Staphylococcus aureus [4]): 0.25 µg/mL (≈ 0.623 µM); MIC90 (Staphylococcus aureus [4]): 0.5 µg/mL (≈ 1.25 µM); MIC50 (Staphylococcus [5]): > 64 µg/mL; MIC90 (Staphylococcus [5]): > 64 µg/mL

Question: For `CO/N=C1\CN(c2nc3c(cc2F)c(=O)c(C(=O)O)cn3C2CC2)CC1CN` (centres undefined) [GEMIFLOXACIN], which MIC50 (Streptococcus pneumoniae) is on record?
Answer: 0.03 µg/mL (≈ 0.077 µM)

Question: What about the MIC90 (Streptococcus pneumoniae) of the same compound?
Answer: 0.06 µg/mL (≈ 0.154 µM)

Question: What about the MIC50 (Enterococcus faecium) of the same compound?
Answer: 2 µg/mL (≈ 5.14 µM)

Question: And the MIC90 (Enterococcus faecium)?
Answer: 16 µg/mL (≈ 41.1 µM)

Question: And the MIC50 (Enterococcus faecalis)?
Answer: 0.125 µg/mL (≈ 0.321 µM)

Question: What about the MIC90 (Enterococcus faecalis) of the same compound?
Answer: 4 µg/mL (≈ 10.3 µM)

Question: And the MIC50 (Enterococcus)?
Answer: 0.5 µg/mL (≈ 1.28 µM)

Question: What about the MIC90 (Enterococcus) of the same compound?
Answer: 2 µg/mL (≈ 5.14 µM)

Question: And the MIC50 (Staphylococcus aureus [1])?
Answer: 2 µg/mL (≈ 5.14 µM)

Question: And the MIC90 (Staphylococcus aureus [1])?
Answer: 64 µg/mL (≈ 164 µM)

Question: What about the MIC50 (Staphylococcus [2]) of the same compound?
Answer: 0.015 µg/mL (≈ 0.0385 µM)

Question: What about the MIC90 (Staphylococcus [2]) of the same compound?
Answer: 0.5 µg/mL (≈ 1.28 µM)

Question: What about the MIC50 (Streptococcus pyogenes) of the same compound?
Answer: 0.03 µg/mL (≈ 0.077 µM)

Question: And the MIC90 (Streptococcus pyogenes)?
Answer: 0.06 µg/mL (≈ 0.154 µM)

Question: And the MIC50 (Moraxella catarrhalis)?
Answer: < 0.008 µg/mL

Question: What about the MIC90 (Moraxella catarrhalis) of the same compound?
Answer: < 0.008 µg/mL

Question: And the MIC (Haemophilus influenzae [3])?
Answer: 0.008 µg/mL (≈ 0.0205 µM)

Question: What about the MIC50 (Haemophilus influenzae [3]) of the same compound?
Answer: 0.008 µg/mL (≈ 0.0205 µM)

Question: What about the MIC90 (Haemophilus influenzae [3]) of the same compound?
Answer: 0.008 µg/mL (≈ 0.0205 µM)

Question: What about the MIC50 (Staphylococcus aureus [4]) of the same compound?
Answer: 0.015 µg/mL (≈ 0.0385 µM)

Question: And the MIC90 (Staphylococcus aureus [4])?
Answer: 0.06 µg/mL (≈ 0.154 µM)

Question: What about the MIC50 (Staphylococcus [5]) of the same compound?
Answer: 0.5 µg/mL (≈ 1.28 µM)

Question: And the MIC90 (Staphylococcus [5])?
Answer: 1 µg/mL (≈ 2.57 µM)

Question: How did the MIC50 (Streptococcus pneumoniae) turn out when `CC(=O)NC[C@H]1CN(c2ccc(N3CCOCC3)c(F)c2)C(=O)O1` [LINEZOLID] was run?
Answer: 1 µg/mL (≈ 2.96 µM)

Question: And the MIC90 (Streptococcus pneumoniae)?
Answer: 1 µg/mL (≈ 2.96 µM)

Question: What about the MIC50 (Enterococcus faecium) of the same compound?
Answer: 2 µg/mL (≈ 5.93 µM)

Question: What about the MIC90 (Enterococcus faecium) of the same compound?
Answer: 2 µg/mL (≈ 5.93 µM)

Question: What about the MIC50 (Enterococcus faecalis) of the same compound?
Answer: 2 µg/mL (≈ 5.93 µM)

Question: What about the MIC90 (Enterococcus faecalis) of the same compound?
Answer: 2 µg/mL (≈ 5.93 µM)

Question: And the MIC (Enterococcus)?
Answer: 2 µg/mL (≈ 5.93 µM)

Question: And the MIC50 (Enterococcus)?
Answer: 2 µg/mL (≈ 5.93 µM)

Question: What about the MIC90 (Enterococcus) of the same compound?
Answer: 2 µg/mL (≈ 5.93 µM)

Question: What about the MIC50 (Staphylococcus aureus [1]) of the same compound?
Answer: 2 µg/mL (≈ 5.93 µM)

Question: What about the MIC90 (Staphylococcus aureus [1]) of the same compound?
Answer: 2 µg/mL (≈ 5.93 µM)

Question: And the MIC (Staphylococcus [2])?
Answer: 1 µg/mL (≈ 2.96 µM)

Question: And the MIC50 (Staphylococcus [2])?
Answer: 1 µg/mL (≈ 2.96 µM)

Question: And the MIC90 (Staphylococcus [2])?
Answer: 2 µg/mL (≈ 5.93 µM)

Question: What about the MIC50 (Streptococcus pyogenes) of the same compound?
Answer: 2 µg/mL (≈ 5.93 µM)

Question: What about the MIC90 (Streptococcus pyogenes) of the same compound?
Answer: 2 µg/mL (≈ 5.93 µM)

Question: What about the MIC (Haemophilus influenzae [6]) of the same compound?
Answer: 16 µg/mL (≈ 47.4 µM)

Question: And the MIC50 (Moraxella catarrhalis)?
Answer: 8 µg/mL (≈ 23.7 µM)

Question: What about the MIC90 (Moraxella catarrhalis) of the same compound?
Answer: 16 µg/mL (≈ 47.4 µM)

Question: What about the MIC50 (Staphylococcus aureus [4]) of the same compound?
Answer: 2 µg/mL (≈ 5.93 µM)

Question: And the MIC90 (Staphylococcus aureus [4])?
Answer: 2 µg/mL (≈ 5.93 µM)

Question: What about the MIC (Staphylococcus [5]) of the same compound?
Answer: 1 µg/mL (≈ 2.96 µM)

Question: What about the MIC50 (Staphylococcus [5]) of the same compound?
Answer: 1 µg/mL (≈ 2.96 µM)

Question: What about the MIC90 (Staphylococcus [5]) of the same compound?
Answer: 1 µg/mL (≈ 2.96 µM)
